Data as given in patent US8975398B2, “NAMPT inhibitors” (AbbVie Inc., priority 2012, dated 2015).

Tests used:
NAMPT = NAMPT (Homo sapiens, UniProt P43490); experiment: Time-Resolved Fluorescence Resonance Energy Transfer (TR-FRET) Binding Assay of NAMPT with PRPP; details: 2 nM NAMPT, 2 nM probe, 200 uM PRPP and 2.5 mM ATP, equilibrated 16 hours
In short: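 Final mix: 2 nM NAMPT, 2 nM probe, 1 nM Tb-anti-His antibody, 200 uM PRPP, 2.5 mM ATP, 2% DMSO in 1× assay buffer. Equilibrated 16 hours before TR-FRET read, allowing possible enzymatic modification of compounds.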

[1] = target: NAMPT (human, recombinant, C-terminally His-tagged) (Homo sapiens, UniProt P43490); experiment: Time-Resolved Fluorescence Resonance Energy Transfer (TR-FRET) Binding Assay of NAMPT; details: 6.8 nM NAMPT, 200 nM probe, equilibrated 3 hours, absence of substrates
Chain of NAMPT (human, recombinant, C-terminally His-tagged) (P43490 whole entry): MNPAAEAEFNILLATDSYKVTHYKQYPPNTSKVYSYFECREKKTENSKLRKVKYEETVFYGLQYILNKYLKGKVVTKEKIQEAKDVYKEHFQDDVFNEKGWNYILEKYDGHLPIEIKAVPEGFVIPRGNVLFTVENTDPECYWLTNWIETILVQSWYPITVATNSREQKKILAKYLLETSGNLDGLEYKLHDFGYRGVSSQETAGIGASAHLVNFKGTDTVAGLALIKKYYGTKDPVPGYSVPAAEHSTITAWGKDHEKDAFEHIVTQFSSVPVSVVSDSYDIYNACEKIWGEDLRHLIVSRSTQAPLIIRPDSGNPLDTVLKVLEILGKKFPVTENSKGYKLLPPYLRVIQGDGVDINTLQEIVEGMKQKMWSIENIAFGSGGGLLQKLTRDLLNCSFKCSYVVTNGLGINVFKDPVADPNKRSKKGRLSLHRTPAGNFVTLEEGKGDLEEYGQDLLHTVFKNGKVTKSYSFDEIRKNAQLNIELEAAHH
In short: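 Recombinant C-terminally His-tagged human NAMPT (6.8 nM) incubated 3 h at room temperature with 200 nM Oregon Green 488–labelled nicotinamide-competitive probe and 1 nM Tb-anti-His antibody in HEPES pH 7.5, 2% DMSO. TR-FRET ratio Em520/Em495 normalized to controls; IC50 from four-parameter logistic fit.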

Chain of NAMPT (P43490 whole entry): as above

**Q.** Which IC50 (NAMPT) does the source give for `CC(C)(C)C(=O)N1CCC(c2ccc(NC(=O)[C@H]3CCN(c4cccnn4)C3)cc2)CC1` [Example 313, (3S)—N-{4-[1-(2,2-dimethylpropanoyl)piperidin-4-yl]phenyl}-1-(pyridazin-3-yl)pyrrolidine-3-carboxamide] here?
**A.** Its IC50 is 4.13 nM.

**Q.** And the IC50 [1]?
**A.** Its IC50 is 217 nM.

**Q.** For `O=C(Nc1ccc(C2CCN(C(=O)c3cccc(Cl)c3)CC2)cc1)C1CN(c2cccnn2)C1` [Example 351, N-{4-[1-(3-chlorobenzoyl)piperidin-4-yl]phenyl}-1-(pyridazin-3-yl)azetidine-3-carboxamide], which IC50 (NAMPT) is on record?
**A.** Its IC50 is 0.765 nM.

**Q.** What about the IC50 [1] of the same compound?
**A.** The IC50 was 37.1 nM.

**Q.** For `COc1ccncc1N1CC(C(=O)Nc2ccc(C3CCN(C(=O)C(C)(C)O)CC3)cc2)C1` [Example 96, N-{4-[1-(2-hydroxy-2-methylpropanoyl)piperidin-4-yl]phenyl}-1-(4-methoxypyridin-3-yl)azetidine-3-carboxamide], which IC50 (NAMPT) is on record?
**A.** The IC50 was 282 nM.

**Q.** And the IC50 [1]?
**A.** The IC50 was 115 nM.

**Q.** Which results are given for `Cc1ccc(C(=O)N2CCC(c3ccc(NC(=O)C4CN(c5cccnn5)C4)cc3)CC2)cc1C` [Example 360, N-{4-[1-(3,4-dimethylbenzoyl)piperidin-4-yl]phenyl}-1-(pyridazin-3-yl)azetidine-3-carboxamide]?
**A.** IC50 (NAMPT): 0.782 nM; IC50 [1]: 22 nM

**Q.** How did the IC50 (NAMPT) turn out when `CC[C@H](C)C(=O)N1CCC(Oc2ccc(NC(=O)C3CN(c4cccnc4)C3)cc2)CC1` [Example 32, N-[4-({1-[(2S)-2-methylbutanoyl]piperidin-4-yl}oxy)phenyl]-1-(pyridin-3-yl)azetidine-3-carboxamide] was run?
**A.** The IC50 was 0.284 nM.

**Q.** And the IC50 [1]?
**A.** Its IC50 is 10.2 nM.

**Q.** For `CCCN1CCC(c2ccc(NC(=O)C3CN(c4cccnc4)C3)cc2)CC1` [Example 95, N-[4-(1-propylpiperidin-4-yl)phenyl]-1-(pyridin-3-yl)azetidine-3-carboxamide], which IC50 (NAMPT) is on record?
**A.** The IC50 was 1.02 nM.

**Q.** What about the IC50 [1] of the same compound?
**A.** The IC50 was 1360 nM.

**Q.** `O=C(Nc1ccc(OC2CCN(C(=O)c3ccccn3)CC2)cc1)C1CN(c2cccnn2)C1` [Example 242, 1-(pyridazin-3-yl)-N-(4-{[1-(pyridin-2-ylcarbonyl)piperidin-4-yl]oxy}phenyl)azetidine-3-carboxamide] was tested. Which IC50 (NAMPT) did it give?
**A.** The IC50 was 1.17 nM.

**Q.** What about the IC50 [1] of the same compound?
**A.** The IC50 was 278 nM.

**Q.** Which results are given for `O=C(Nc1ccc(OC2CN(C(=O)c3ccc(F)cc3)C2)cc1)C1CN(c2ccnnc2)C1` [Example 199, N-(4-{[1-(4-fluorobenzoyl)azetidin-3-yl]oxy}phenyl)-1-(pyridazin-4-yl)azetidine-3-carboxamide]?
**A.** IC50 (NAMPT): 28 nM; IC50 [1]: 33.7 nM

**Q.** What does the source list for `O=C(Nc1ccc(OC2CCN(C(=O)c3cc(F)cc(F)c3)CC2)cc1)C1CN(c2ccnnc2)C1` [Example 299, N-(4-{[1-(3,5-difluorobenzoyl)piperidin-4-yl]oxy}phenyl)-1-(pyridazin-4-yl)azetidine-3-carboxamide]?
**A.** IC50 (NAMPT): 86.9 nM; IC50 [1]: 154 nM

**Q.** For `CCCN1CCC(Oc2ccc(NC(=O)C3CN(c4cccnc4)C3)cc2)CC1` [Example 81, N-{4-[(1-propylpiperidin-4-yl)oxy]phenyl}-1-(pyridin-3-yl)azetidine-3-carboxamide], which IC50 (NAMPT) is on record?
**A.** The IC50 was 1.13 nM.

**Q.** And the IC50 [1]?
**A.** Its IC50 is 3720 nM.

**Q.** For `COc1ncccc1N1CC(C(=O)Nc2ccc(C3CCN(C(=O)C(C)(C)O)CC3)cc2)C1` [Example 73, N-{4-[1-(2-hydroxy-2-methylpropanoyl)piperidin-4-yl]phenyl}-1-(2-methoxypyridin-3-yl)azetidine-3-carboxamide], which IC50 (NAMPT) is on record?
**A.** Its IC50 is 71.1 nM.

**Q.** What about the IC50 [1] of the same compound?
**A.** The IC50 was 224 nM.

**Q.** For `O=C(Nc1ccc(OC2CCN(C(=O)CC3CC3)CC2)cc1)C1CN(c2cccnn2)C1` [Example 233, N-(4-{[1-(cyclopropylacetyl)piperidin-4-yl]oxy}phenyl)-1-(pyridazin-3-yl)azetidine-3-carboxamide], which IC50 (NAMPT) is on record?
**A.** The IC50 was 0.614 nM.

**Q.** What about the IC50 [1] of the same compound?
**A.** Its IC50 is 113 nM.

**Q.** Which results are given for `O=C(Nc1ccc(C2CCN(C(=O)c3cccc(O)c3)CC2)cc1)C1CN(c2cccnn2)C1` [Example 343, N-{4-[1-(3-hydroxybenzoyl)piperidin-4-yl]phenyl}-1-(pyridazin-3-yl)azetidine-3-carboxamide]?
**A.** IC50 (NAMPT): 0.728 nM; IC50 [1]: 6.18 nM

**Q.** Which IC50 (NAMPT) does the source give for `O=C(Nc1ccc(OC2CCN(C(=O)c3ccc(F)c(F)c3)CC2)cc1)C1CN(c2ccnnc2)C1` [Example 274, N-(4-{[1-(3,4-difluorobenzoyl)piperidin-4-yl]oxy}phenyl)-1-(pyridazin-4-yl)azetidine-3-carboxamide] here?
**A.** The IC50 was 64.5 nM.

**Q.** What about the IC50 [1] of the same compound?
**A.** Its IC50 is 152 nM.

**Q.** With `O=C(Nc1ccc(OC2CCN(C(=O)Cc3ccc(F)cc3F)CC2)cc1)C1CN(c2ccnnc2)C1` [Example 277, N-[4-({1-[(2,4-difluorophenyl)acetyl]piperidin-4-yl}oxy)phenyl]-1-(pyridazin-4-yl)azetidine-3-carboxamide] as the compound, how does the IC50 (NAMPT) read?
**A.** The IC50 was 26.7 nM.

**Q.** And the IC50 [1]?
**A.** Its IC50 is 62.4 nM.

**Q.** How did the IC50 (NAMPT) turn out when `O=C(Nc1ccc(OC2CCN(C(=O)CN3CCOCC3)CC2)cc1)C1CN(c2cccnc2)C1` [Example 60, N-(4-{[1-(morpholin-4-ylacetyl)piperidin-4-yl]oxy}phenyl)-1-(pyridin-3-yl)azetidine-3-carboxamide] was run?
**A.** Its IC50 is 1.01 nM.

**Q.** And the IC50 [1]?
**A.** Its IC50 is 150 nM.

**Q.** For `Cc1ccsc1C(=O)N1CCC(Oc2ccc(NC(=O)C3CN(c4cccnc4)C3)cc2)CC1` [Example 59, N-[4-({1-[(3-methylthiophen-2-yl)carbonyl]piperidin-4-yl}oxy)phenyl]-1-(pyridin-3-yl)azetidine-3-carboxamide], which IC50 (NAMPT) is on record?
**A.** Its IC50 is 0.606 nM.

**Q.** And the IC50 [1]?
**A.** The IC50 was 27.9 nM.

**Q.** What does the source list for `CC(C)(C)C(=O)N1CCC(Oc2ccc(NC(=O)C3CN(c4cccnn4)C3)cc2)CC1` [Example 241, N-(4-{[1-(2,2-dimethylpropanoyl)piperidin-4-yl]oxy}phenyl)-1-(pyridazin-3-yl)azetidine-3-carboxamide]?
**A.** IC50 (NAMPT): 0.811 nM; IC50 [1]: 131 nM

**Q.** For `O=C(Nc1ccc(OC2CN(C(=O)C3CCC3)C2)cc1)C1CN(c2ccnnc2)C1` [Example 261, N-(4-{[1-(cyclobutylcarbonyl)azetidin-3-yl]oxy}phenyl)-1-(pyridazin-4-yl)azetidine-3-carboxamide], which IC50 (NAMPT) is on record?
**A.** Its IC50 is 23.7 nM.

**Q.** And the IC50 [1]?
**A.** The IC50 was 62.9 nM.

**Q.** What does the source list for `O=C(Nc1ccc(OC2CCN(C(=O)c3ccc(Cl)cc3)CC2)cc1)C1CN(c2cccnn2)C1` [Example 245, N-(4-{[1-(4-chlorobenzoyl)piperidin-4-yl]oxy}phenyl)-1-(pyridazin-3-yl)azetidine-3-carboxamide]?
**A.** IC50 (NAMPT): 0.707 nM; IC50 [1]: 101 nM

**Q.** Which IC50 (NAMPT) does the source give for `O=C(Nc1ccc(OC2CN(C(=O)C3CCOC3)C2)cc1)C1CN(c2ccnnc2)C1` (centres unmarked) [Example 208, 1-(pyridazin-4-yl)-N-(4-{[1-(tetrahydrofuran-3-ylcarbonyl)azetidin-3-yl]oxy}phenyl)azetidine-3-carboxamide] here?
**A.** Its IC50 is 49.6 nM.

**Q.** And the IC50 [1]?
**A.** Its IC50 is 117 nM.

**Q.** Which results are given for `O=C(Nc1ccc(C2CCN(C(=O)c3ccco3)CC2)cc1)C1CN(c2cccnc2)C1` [Example 129, N-{4-[1-(furan-2-ylcarbonyl)piperidin-4-yl]phenyl}-1-(pyridin-3-yl)azetidine-3-carboxamide]?
**A.** IC50 (NAMPT): 0.367 nM; IC50 [1]: 4.49 nM

**Q.** With `O=C(Nc1ccc(OC2CCN(C(=O)Cc3ccc(OC(F)(F)F)cc3)CC2)cc1)C1CN(c2ccnnc2)C1` [Example 275, 1-(pyridazin-4-yl)-N-{4-[(1-{[4-(trifluoromethoxy)phenyl]acetyl}piperidin-4-yl)oxy]phenyl}azetidine-3-carboxamide] as the compound, how does the IC50 (NAMPT) read?
**A.** The IC50 was 45.1 nM.

**Q.** What about the IC50 [1] of the same compound?
**A.** The IC50 was 231 nM.

**Q.** Which IC50 (NAMPT) does the source give for `CCCC(C)C(=O)N1CCC(c2ccc(NC(=O)C3CN(c4cccnn4)C3)cc2)CC1` (centres unmarked) [Example 322, N-{4-[1-(2-methylpentanoyl)piperidin-4-yl]phenyl}-1-(pyridazin-3-yl)azetidine-3-carboxamide] here?
**A.** Its IC50 is 0.843 nM.

**Q.** And the IC50 [1]?
**A.** The IC50 was 28.6 nM.

**Q.** With `O=C(Nc1ccc(OC2CCN(C(=O)c3ccc(F)c(F)c3)CC2)cc1)C1CN(c2cccnn2)C1` [Example 234, N-(4-{[1-(3,4-difluorobenzoyl)piperidin-4-yl]oxy}phenyl)-1-(pyridazin-3-yl)azetidine-3-carboxamide] as the compound, how does the IC50 (NAMPT) read?
**A.** The IC50 was 0.73 nM.

**Q.** And the IC50 [1]?
**A.** The IC50 was 185 nM.

**Q.** With `Cc1ncccc1N1CC(C(=O)Nc2ccc(C3CCN(C(=O)c4ccccc4F)CC3)cc2)C1` [Example 150, N-{4-[1-(2-fluorobenzoyl)piperidin-4-yl]phenyl}-1-(2-methylpyridin-3-yl)azetidine-3-carboxamide] as the compound, how does the IC50 (NAMPT) read?
**A.** Its IC50 is 43.8 nM.

**Q.** What about the IC50 [1] of the same compound?
**A.** The IC50 was 6.53 nM.

**Q.** `COc1cccc(C(=O)N2CCC(c3ccc(NC(=O)C4CN(c5cccnn5)C4)cc3)CC2)c1` [Example 346, N-{4-[1-(3-methoxybenzoyl)piperidin-4-yl]phenyl}-1-(pyridazin-3-yl)azetidine-3-carboxamide] was tested. Which IC50 (NAMPT) did it give?
**A.** The IC50 was 0.457 nM.

**Q.** What about the IC50 [1] of the same compound?
**A.** The IC50 was 30.8 nM.

**Q.** For `O=C(Nc1ccc(OC2CCN(C(=O)CC(F)(F)F)CC2)cc1)C1CN(c2cccnc2)C1` [Example 55, 1-(pyridin-3-yl)-N-(4-{[1-(3,3,3-trifluoropropanoyl)piperidin-4-yl]oxy}phenyl)azetidine-3-carboxamide], which IC50 (NAMPT) is on record?
**A.** The IC50 was 2.22 nM.

**Q.** What about the IC50 [1] of the same compound?
**A.** The IC50 was 168 nM.

**Q.** For `CC(C)(C)OC(=O)N1CCC(Oc2ccc(NC(=O)[C@@H]3CCN(c4cccnc4)C3)cc2)CC1` [Example 9, tert-butyl 4-[4-({[(3R)-1-(pyridin-3-yl)pyrrolidin-3-yl]carbonyl}amino)phenoxy]piperidine-1-carboxylate], which IC50 (NAMPT) is on record?
**A.** The IC50 was 17.2 nM.

**Q.** And the IC50 [1]?
**A.** The IC50 was 8620 nM.

**Q.** With `CC(C)CC(=O)N1CCC(c2ccc(NC(=O)C3CN(c4cccnc4)C3)cc2)CC1` [Example 137, N-{4-[1-(3-methylbutanoyl)piperidin-4-yl]phenyl}-1-(pyridin-3-yl)azetidine-3-carboxamide] as the compound, how does the IC50 (NAMPT) read?
**A.** The IC50 was 0.459 nM.

**Q.** And the IC50 [1]?
**A.** The IC50 was 17.6 nM.

**Q.** With `O=C(Nc1ccc(OC2CCN(C(=O)Cc3ccc(OC(F)(F)F)cc3)CC2)cc1)C1CN(c2cccnn2)C1` [Example 238, 1-(pyridazin-3-yl)-N-{4-[(1-{[4-(trifluoromethoxy)phenyl]acetyl}piperidin-4-yl)oxy]phenyl}azetidine-3-carboxamide] as the compound, how does the IC50 (NAMPT) read?
**A.** Its IC50 is 0.554 nM.

**Q.** What about the IC50 [1] of the same compound?
**A.** The IC50 was 207 nM.
